Assays:
Assay type in all cases: in vivo, Japanese patients
[1] = system: relapsed/refractory (r/r) B‐cell malignancies; test: Antitumor activity
[2] = Plasma pharmacokinetics of acalabrutinib and ACP‐5862
Safety and tolerability = conditions: for Overall safety and tolerability: adult Japanese patients with r/r B‐cell malignancies
[3] = CLL/SLL cohort (n = 9), Part 1 + Part 2
[4] = MCL cohort (n = 13), Part 1 + Part 2
[5] = multiple dose 100 mg BID, day 8, part 1
[6] = multiple dose 100 mg BID, day 8, part 1, fasting

## CC#CC(=O)N1CCC[C@H]1c1nc(-c2ccc(C(=O)Nc3ccccn3)cc2)c2c(N)nccn12 [acalabrutinib]
[1]; [3]
  CR: 0 Number (%) of patients with a response
  CRi: 2 (22) Number (%) of patients with a response
  Clinical PD: 0 Number (%) of patients with a response
  Nonresponse (total): 1 (11) Number (%) of patients with a response
  Not evaluable: 0 Number (%) of patients with a response
  ORR: 8 (89) Number (%) of patients with a response
  PD: 0 Number (%) of patients with a response
  PR: 6 (67) Number (%) of patients with a response
  PRL: 1 (11) Number (%) of patients with a response
  Stable disease: 0 Number (%) of patients with a response
[1]; CLL/SLL cohort including PRL (n = 9), Part 1 + Part 2
  ORR: 9 (100) Number (%) of patients with a response
[1]; [4]
  CR: 5 (38) Number (%) of patients with a response
  Nonresponse (total): 5 (38) Number (%) of patients with a response
  Not evaluable: 0 Number (%) of patients with a response
  ORR: 8 (62) Number (%) of patients with a response
  PD: 2 (15) Number (%) of patients with a response
  PR: 3 (23) Number (%) of patients with a response
  Stable disease: 3 (23) Number (%) of patients with a response
[1]; r/r CLL/SLL cohort (8/9 patients)
  Overall response rate (ORR): 89%
[1]; r/r CLL/SLL cohort (n = 9)
  Median progression‐free survival (PFS): not reached
[1]; r/r CLL/SLL cohort including PRL (9/9 patients)
  Overall response rate (ORR): 100%
[1]; r/r MCL cohort (8/13 patients)
  Overall response rate (ORR): 62%
[1]; r/r MCL cohort (n = 13)
  Median progression‐free survival (PFS): 7 months
[2]; after a single dose
  Coefficient of variation (CV) of Cmax: 174%
[2]; after multiple dosing
  Interpatient variability (CVs): < 30%
[2]; [5]
  RAC (extent of accumulation on multiple dosing), Amean ± SD: 1.69
  TC (time dependency of pharmacokinetics), Amean ± SD: 1.163 ± 0.4770
[2]; [6]
  CL/F (oral clearance), Amean ± SD: 84.89 ± 19.84 L/h
  t1/2, Amean ± SD: 1.795 ± 0.7404 h
[2]; multiple dose 100 mg BID, day 8, part 1, listed as Acalabrutinib
  RAC (extent of accumulation on multiple dosing), Amean ± SD: 1.694 ± 1.275
[2]; single dose 100 mg acalabrutinib, part 1, fasting
  CL/F (oral clearance), Amean ± SD: 99.54 ± 44.33 L/h
[2]; single‐ and multiple‐dose periods
  Absorption: rapidly absorbed
Safety and tolerability; 100 mg BID
  Overall safety and tolerability: safe and well‐tolerated
Safety and tolerability; 100 mg BID, listed as Acalabrutinib
  Overall safety and tolerability: generally safe and well‐tolerated
Safety and tolerability; 100 mg BID, part 1
  Dose‐limiting toxicities (DLTs): No DLTs were observed
Safety and tolerability; Part 1 (N = 6)
  AE of clinical interest: Anemia: 2 (33.3) n (%)
  AE of clinical interest: Atrial fibrillation: 0 n (%)
  AE of clinical interest: Cardiac events: 0 n (%)
  AE of clinical interest: Hemorrhage: 0 n (%)
  AE of clinical interest: Hepatotoxicity: 0 n (%)
  AE of clinical interest: Infections: 6 (100.0) n (%)
  AE of clinical interest: Interstitial lung disease/pneumonitis: 1 (16.7) n (%)
  AE of clinical interest: Leukopenia: 1 (16.7) n (%)
  AE of clinical interest: Neutropenia: 1 (16.7) n (%)
  AE of clinical interest: Other hemorrhage: 0 n (%)
  AE of clinical interest: Other leukopenia: 0 n (%)
  AE of clinical interest: Second primary malignancies (excl. nonmelanoma skin cancer): 1 (16.7) n (%)
  AE of clinical interest: Second primary malignancy: 1 (16.7) n (%)
  AE of clinical interest: Thrombocytopenia: 1 (16.7) n (%)
  AE of clinical interest: Tumor lysis syndrome: 0 n (%)
  Patients with any AE of clinical interest: 6 (100.0) n (%)
  Patients with any SAE: 3 (50.0) n (%)
  SAE: Abdominal pain upper: 0 n (%)
  SAE: Anemia: 1 (16.7) n (%)
  SAE: Blood and lymphatic system disorders: 1 (16.7) n (%)
  SAE: Colon cancer: 1 (16.7) n (%)
  SAE: Gastrointestinal disorders: 0 n (%)
  SAE: Infections and infestations: 1 (16.7) n (%)
  SAE: Neoplasms benign, malignant, and unspecified (incl. cysts and polyps): 1 (16.7) n (%)
  SAE: Pneumonia: 1 (16.7) n (%)
Safety and tolerability; Total (N = 25)
  AE of clinical interest: 95 Total number of AEs
  AE of clinical interest: Anemia: 6 (24.0) n (%)
  AE of clinical interest: Atrial fibrillation: 1 (4.0) n (%)
  AE of clinical interest: Cardiac events: 1 (4.0) n (%)
  AE of clinical interest: Hemorrhage: 8 (32.0) n (%)
  AE of clinical interest: Hepatotoxicity: 3 (12.0) n (%)
  AE of clinical interest: Infections: 16 (64.0) n (%)
  AE of clinical interest: Interstitial lung disease/pneumonitis: 1 (4.0) n (%)
  AE of clinical interest: Leukopenia: 7 (28.0) n (%)
  AE of clinical interest: Neutropenia: 6 (24.0) n (%)
  AE of clinical interest: Other hemorrhage: 8 (32.0) n (%)
  AE of clinical interest: Other leukopenia: 3 (12.0) n (%)
  AE of clinical interest: Second primary malignancies (excl. nonmelanoma skin cancer): 1 (4.0) n (%)
  AE of clinical interest: Second primary malignancy: 1 (4.0) n (%)

Reference: publication PMC8177795 (Cancer Science, 2021)
